Results reported in US10166216B2 (Rigel Pharmaceuticals, Inc., priority 2006, dated 2019).

Target: Axl (Homo sapiens (Human), UniProt P30530)
Assay: Phospho-Akt in-cell Western assay (Axl-antibody cross-linking stimulation)
Assay type: cell-based
Conditions: inhibition of Axl activity, phospho-Akt in-cell Western assay
Procedure, shortened: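 HeLa cells on poly-L-lysine, starved 24 hrs with Axl/Fc, pre-treated with compound 1 hr at 37° C., then stimulated 5 min with Axl primary/secondary antibody cluster. Fixed cells probed for phospho-Akt by chemiluminescent in-cell Western; signal normalized to crystal violet cell number.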

Axl, sequence (P30530 26-894): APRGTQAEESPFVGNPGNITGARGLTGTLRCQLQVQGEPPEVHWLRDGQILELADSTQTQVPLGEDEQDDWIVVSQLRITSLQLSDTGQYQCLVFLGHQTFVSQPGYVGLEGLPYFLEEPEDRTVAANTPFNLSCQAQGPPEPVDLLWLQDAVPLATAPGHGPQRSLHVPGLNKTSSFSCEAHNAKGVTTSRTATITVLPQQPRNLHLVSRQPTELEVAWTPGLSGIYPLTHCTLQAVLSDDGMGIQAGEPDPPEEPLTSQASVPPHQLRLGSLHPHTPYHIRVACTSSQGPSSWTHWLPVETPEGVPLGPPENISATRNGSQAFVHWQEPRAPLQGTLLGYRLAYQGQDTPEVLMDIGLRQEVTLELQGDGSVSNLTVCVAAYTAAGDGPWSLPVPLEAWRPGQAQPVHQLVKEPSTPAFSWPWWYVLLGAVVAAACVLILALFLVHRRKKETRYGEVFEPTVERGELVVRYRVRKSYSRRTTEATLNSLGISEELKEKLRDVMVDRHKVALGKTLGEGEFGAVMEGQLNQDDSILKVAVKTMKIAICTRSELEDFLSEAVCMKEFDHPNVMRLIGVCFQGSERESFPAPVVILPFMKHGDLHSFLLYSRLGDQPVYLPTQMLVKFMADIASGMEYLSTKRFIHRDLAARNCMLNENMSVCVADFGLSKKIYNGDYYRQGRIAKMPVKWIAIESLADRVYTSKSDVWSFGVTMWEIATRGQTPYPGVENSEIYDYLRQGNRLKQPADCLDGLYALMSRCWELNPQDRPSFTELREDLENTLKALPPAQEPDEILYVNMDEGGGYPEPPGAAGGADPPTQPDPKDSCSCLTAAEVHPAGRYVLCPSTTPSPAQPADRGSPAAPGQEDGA

Structure (SMILES)	IC50 [nM]
Nc1nc(Nc2ccc(N3CCN([C@H]4C[C@@H]5CC[C@H]4C5)CC3)cc2)nn1-c1nc(Cl)nc2ccsc12 [Compound 179, 1-(2-chlorothieno[3,2-d]pyrimidin-4-yl)-N^3-(4-(4-((1S,2S,4R)-bicyclo[2.2.1]heptan-2-yl)-piperazin-1-yl)phenyl)-1H-1,2,4-triazole-3,5-diamine]	< 1000
COc1cc2cnc(-n3nc(Nc4ccc(N5CCN(C)CC5)cc4)nc3N)nc2cc1OC [Compound 180, 1-(6,7-dimethoxyquinazolin-2-yl)-N^3-(4-(4-methylpiperazin-1-yl)phenyl)-1H-1,2,4-triazole-3,5-diamine]	< 1000
COc1cc2cnc(-n3nc(Nc4ccc(N5CCN(C6CCCCC6)CC5)c(F)c4)nc3N)nc2cc1OC [Compound 181, 1-(6,7-dimethoxyquinazolin-2-yl)-N^3-(3-fluoro-4-(4-cyclohexylpiperazin-1-yl)phenyl)-1H-1,2,4-triazole-3,5-diamine]	< 1000
Nc1nc(Nc2ccc(N3CCN(C4CC5CCC4C5)CC3)cc2)nn1-c1ncnc2cc(-c3ccc(Cl)cc3)sc12 (centres unmarked) [Compound 186, 1-(6-(4-chlorophenyl)thieno[3,2-d]pyrimidin-4-yl)-N^3-(4-(4-(bicyclo[2.2.1]heptan-2-yl)-piperazin-1-yl)phenyl)-1H-1,2,4-triazole-3,5-diamine]	> 20000

More lines, now with the values ahead:

IC50 [nM]	Structure (SMILES)
< 1000	Nc1nc(Nc2ccc(N3CCN(C4CC5CCC4C5)CC3)cc2)nn1-c1ncnc2c1sc1ncccc12 (centres unmarked) [Compound 184, 1-(pyrido[2,3-b]pyrimido[4,5-d]thiophene-4-yl)-N^3-(4-(4-(bicyclo[2.2.1]heptan-2-yl)-piperazin-1-yl)phenyl)-1H-1,2,4-triazole-3,5-diamine]
> 20000	Nc1nc(Nc2ccc(N3CCN(C4CC5CCC4C5)CC3)cc2)nn1-c1ncnc2scc(-c3cccs3)c12 (centres unmarked) [Compound 185, 1-(5-(thiophen-2-yl)thieno[2,3-d]pyrimidin-4-yl)-N^3-(4-(4-(bicyclo[2.2.1]heptan-2-yl)-piperazin-1-yl)phenyl)-1H-1,2,4-triazole-3,5-diamine]
< 1000	CC(C)(C)c1cc2ncnc(-n3nc(Nc4ccc(N5CCN(C6CC7CCC6C7)CC5)cc4)nc3N)c2s1 (centres unmarked) [Compound 187, 1-(6-(1,1-dimethylethyl)thieno[3,2-d]pyrimidin-4-yl)-N^3-(4-(4-(bicyclo[2.2.1]heptan-2-yl)-piperazin-1-yl)phenyl)-1H-1,2,4-triazole-3,5-diamine]
< 1000	Cc1csc2c(-n3nc(Nc4ccc(N5CCN([C@H]6C[C@@H]7CC[C@H]6C7)CC5)cc4)nc3N)ncnc12 [Compound 188, 1-(7-methylthieno[3,2-d]pyrimidin-4-yl)-N^3-(4-(4-((1S,2S,4R)-bicyclo[2.2.1]heptan-2-yl)-piperazin-1-yl)phenyl)-1H-1,2,4-triazole-3,5-diamine]
< 1000	Nc1nc(Nc2ccc(N3CCN([C@H]4C[C@@H]5CC[C@H]4C5)CC3)cc2)nn1-c1ncnc2ccsc12 [Compound 189, 1-(thieno[3,2-d]pyrimidin-4-yl)-N^3-(4-(4-((1S,2S,4R)-bicyclo[2.2.1]heptan-2-yl)-piperazin-1-yl)phenyl)-1H-1,2,4-triazole-3,5-diamine]
< 1000	Nc1nc(Nc2ccc(N3CCN([C@H]4C[C@@H]5CC[C@H]4C5)CC3)cc2)nn1-c1ncnc2sccc12 [Compound 190, 1-(thieno[2,3-d]pyrimidin-4-yl)-N^3-(4-(4-((1S,2S,4R)-bicyclo[2.2.1]heptan-2-yl)-piperazin-1-yl)phenyl)-1H-1,2,4-triazole-3,5-diamine]
1000 to 10000	Cc1csc2ncnc(-n3nc(Nc4ccc(N5CCN([C@H]6C[C@@H]7CC[C@H]6C7)CC5)cc4)nc3N)c12 [Compound 191, 1-(5-methylthieno[2,3-d]pyrimidin-4-yl)-N^3-(4-(4-((1S,2S,4R)-bicyclo[2.2.1]heptan-2-yl)-piperazin-1-yl)phenyl)-1H-1,2,4-triazole-3,5-diamine]
